# Reference: publication PMC7486443, “Generation of Phenothiazine with Potent Anti-TLK1 Activity for Prostate Cancer Therapy” (iScience, 2020)
# Legend:
# Experiment in all cases: biochemical
# Parameters in all cases: DiscoverX KINOMEscan scanMAX competition binding panel, single concentration, percent of control; remaining binding: dose or concentration left out as unconfirmed
# Settings in all cases: KINOMEscan binding, percent of control; read-out: Table S4_SCANMAX REPORT - related to Fig. 1 / Percent Control
# ADCK3 = target: T1, ADCK3 (Homo sapiens, UniProt Q8NI60)
# T1 construct: gene COQ8A
# From the text: (§1) Certain PTH are potent inhibitors of TLK1 ([Ronald et al., 2013]), and by inference TLK2, as these proteins must homo- and hetero-dimerize for full activation ([Mortuza et al., 2018]), in addition to being highly similar in sequence and structure, and thus similarly targetable. […] Two noteworthy observations are that PTHs are structurally different from many known ATP competitive inhibitors, and that J54 was carefully designed based on considerations reported previously for the THD—the Kinomescan has confirmed that J54 is specific to TLKs. We should point out that although PTH were the first reported inhibitors of TLKs ([Ronald et al., 2013]), other inhibitors particularly of TLK2 have since been reported ([Kim et al., 2016]), some based on structure docking ([Mortuza et al., 2018]), although neither their potency and effects in vivo nor their potential off-target effects have not been reported as they were selected from libraries of kinase inhibitors. Supplementary file mmc2.xlsx: Table S4. SCANMAX Table, Related to Figure 1 Kinomescan of J54 inhibitory activity on human kinases.
# EPHA8 = EPHA8 (Homo sapiens, UniProt P29322)
# From the text: as §1
# ULK2 = ULK2 (Homo sapiens, UniProt Q8IYT8)
# Chain of ULK2 (Q8IYT8 whole entry): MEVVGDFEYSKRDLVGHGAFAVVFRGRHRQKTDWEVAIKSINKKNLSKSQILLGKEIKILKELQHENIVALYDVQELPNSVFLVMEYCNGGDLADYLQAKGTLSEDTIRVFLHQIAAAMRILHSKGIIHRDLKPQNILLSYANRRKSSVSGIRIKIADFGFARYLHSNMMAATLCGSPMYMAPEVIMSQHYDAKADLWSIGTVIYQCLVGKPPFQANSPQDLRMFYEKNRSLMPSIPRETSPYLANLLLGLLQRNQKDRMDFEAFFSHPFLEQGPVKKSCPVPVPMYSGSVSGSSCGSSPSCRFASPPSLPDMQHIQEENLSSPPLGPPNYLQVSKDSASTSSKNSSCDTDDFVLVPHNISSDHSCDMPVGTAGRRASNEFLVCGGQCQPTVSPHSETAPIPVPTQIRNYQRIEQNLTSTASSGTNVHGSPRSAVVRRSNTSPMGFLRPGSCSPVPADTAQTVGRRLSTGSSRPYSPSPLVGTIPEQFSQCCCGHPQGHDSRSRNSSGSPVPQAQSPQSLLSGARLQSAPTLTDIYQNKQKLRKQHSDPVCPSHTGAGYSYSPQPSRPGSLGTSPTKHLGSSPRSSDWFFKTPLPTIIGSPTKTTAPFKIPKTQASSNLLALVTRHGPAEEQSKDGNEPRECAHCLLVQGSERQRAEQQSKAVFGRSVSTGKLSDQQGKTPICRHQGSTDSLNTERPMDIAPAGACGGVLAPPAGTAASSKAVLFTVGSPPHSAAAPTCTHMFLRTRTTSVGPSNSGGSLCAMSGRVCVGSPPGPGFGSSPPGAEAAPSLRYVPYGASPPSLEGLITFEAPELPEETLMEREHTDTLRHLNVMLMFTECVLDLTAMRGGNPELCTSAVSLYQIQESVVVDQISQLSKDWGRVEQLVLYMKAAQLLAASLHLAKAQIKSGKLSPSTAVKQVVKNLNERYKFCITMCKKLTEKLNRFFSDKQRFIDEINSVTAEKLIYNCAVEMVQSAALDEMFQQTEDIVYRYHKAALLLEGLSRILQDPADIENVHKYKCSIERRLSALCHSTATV
# From the text: as §1
# TAOK1 = TAOK1 (Homo sapiens, UniProt Q7L7X3)
# From the text: as §1
# [1] = target: T2, JAK1(JH1domain-catalytic) (Homo sapiens, UniProt P23458)
# T2 construct: JH1domain-catalytic
# From the text: as §1
# NEK5 = NEK5 (Homo sapiens, UniProt Q6P3R8)
# Chain of NEK5 (Q6P3R8 whole entry): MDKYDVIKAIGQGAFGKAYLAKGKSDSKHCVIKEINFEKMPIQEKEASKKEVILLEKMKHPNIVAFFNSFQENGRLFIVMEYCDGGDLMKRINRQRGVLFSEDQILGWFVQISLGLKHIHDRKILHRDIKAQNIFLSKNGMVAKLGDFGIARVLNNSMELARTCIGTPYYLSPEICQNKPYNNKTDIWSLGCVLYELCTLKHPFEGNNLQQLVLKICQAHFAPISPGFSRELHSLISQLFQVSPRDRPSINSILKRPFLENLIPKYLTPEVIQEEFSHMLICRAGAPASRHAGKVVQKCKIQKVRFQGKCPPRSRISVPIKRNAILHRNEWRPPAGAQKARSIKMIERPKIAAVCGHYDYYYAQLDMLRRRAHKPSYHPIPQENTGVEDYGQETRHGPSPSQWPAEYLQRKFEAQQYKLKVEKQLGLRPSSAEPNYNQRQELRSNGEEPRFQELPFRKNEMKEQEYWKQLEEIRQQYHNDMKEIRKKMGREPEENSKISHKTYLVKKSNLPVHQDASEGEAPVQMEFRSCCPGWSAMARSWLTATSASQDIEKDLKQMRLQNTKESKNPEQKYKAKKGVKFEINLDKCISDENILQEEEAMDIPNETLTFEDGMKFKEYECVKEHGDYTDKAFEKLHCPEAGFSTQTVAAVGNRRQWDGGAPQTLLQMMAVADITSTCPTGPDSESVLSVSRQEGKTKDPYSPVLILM
# From the text: as §1
# KIT(V559D,V654A) = KIT(V559D,V654A) (Homo sapiens, UniProt P10721, V559D/V654A)
# From the text: as §1
# LRRK2 = LRRK2 (Homo sapiens, UniProt Q5S007)
# From the text: as §1
# EPHA6 = EPHA6 (Homo sapiens, UniProt Q9UF33)
# Chain of EPHA6 (Q9UF33 whole entry): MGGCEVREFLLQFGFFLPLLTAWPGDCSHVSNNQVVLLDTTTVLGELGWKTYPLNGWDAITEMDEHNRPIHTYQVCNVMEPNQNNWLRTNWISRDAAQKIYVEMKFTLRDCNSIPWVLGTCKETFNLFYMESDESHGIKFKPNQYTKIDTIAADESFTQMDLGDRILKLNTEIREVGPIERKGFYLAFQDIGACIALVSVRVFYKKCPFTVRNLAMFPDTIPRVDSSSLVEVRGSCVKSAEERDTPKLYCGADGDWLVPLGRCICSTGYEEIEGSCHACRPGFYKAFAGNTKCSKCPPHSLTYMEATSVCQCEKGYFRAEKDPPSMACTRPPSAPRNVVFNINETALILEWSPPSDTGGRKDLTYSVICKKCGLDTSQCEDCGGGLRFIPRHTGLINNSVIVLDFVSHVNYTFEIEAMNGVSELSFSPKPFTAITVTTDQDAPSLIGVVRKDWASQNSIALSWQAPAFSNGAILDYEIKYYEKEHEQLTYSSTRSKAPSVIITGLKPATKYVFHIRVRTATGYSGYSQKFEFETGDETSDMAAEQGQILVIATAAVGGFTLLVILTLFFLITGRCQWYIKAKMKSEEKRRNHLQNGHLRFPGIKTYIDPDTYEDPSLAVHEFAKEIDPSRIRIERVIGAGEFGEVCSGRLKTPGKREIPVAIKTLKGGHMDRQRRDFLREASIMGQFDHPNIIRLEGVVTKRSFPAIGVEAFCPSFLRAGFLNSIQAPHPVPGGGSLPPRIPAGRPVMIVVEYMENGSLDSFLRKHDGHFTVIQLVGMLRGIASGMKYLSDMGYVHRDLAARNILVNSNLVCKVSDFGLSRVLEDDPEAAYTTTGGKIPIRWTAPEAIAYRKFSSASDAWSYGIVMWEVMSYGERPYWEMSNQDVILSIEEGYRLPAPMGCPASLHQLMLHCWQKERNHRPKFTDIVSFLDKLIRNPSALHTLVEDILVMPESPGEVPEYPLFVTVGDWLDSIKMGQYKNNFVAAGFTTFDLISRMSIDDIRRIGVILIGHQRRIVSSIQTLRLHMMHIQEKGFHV
# From the text: as §1
# PRKCI = PRKCI (Homo sapiens, UniProt P41743)
# From the text: as §1
# PIM1 = PIM1 (Homo sapiens, UniProt P11309)
# Chain of PIM1 (P11309 whole entry): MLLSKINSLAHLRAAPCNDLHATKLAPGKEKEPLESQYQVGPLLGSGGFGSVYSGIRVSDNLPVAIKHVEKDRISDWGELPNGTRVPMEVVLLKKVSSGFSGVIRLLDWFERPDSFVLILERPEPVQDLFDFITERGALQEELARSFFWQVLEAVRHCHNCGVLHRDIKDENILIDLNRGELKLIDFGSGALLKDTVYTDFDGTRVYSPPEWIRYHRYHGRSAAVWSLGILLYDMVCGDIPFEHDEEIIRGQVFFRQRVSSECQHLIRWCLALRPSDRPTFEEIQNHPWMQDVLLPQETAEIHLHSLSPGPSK
# From the text: as §1
# TIE2 = target: T3, TIE2 (Homo sapiens, UniProt Q02763)
# T3 construct: gene TEK
# From the text: as §1
# HIPK4 = HIPK4 (Homo sapiens, UniProt Q8NE63)
# From the text: as §1
# [2] = target: T4, ABL1(F317L)-nonphosphorylated (Homo sapiens, UniProt P00519, F317L)
# T4 construct: nonphosphorylated
# T4 sequence (P00519 whole entry F317L): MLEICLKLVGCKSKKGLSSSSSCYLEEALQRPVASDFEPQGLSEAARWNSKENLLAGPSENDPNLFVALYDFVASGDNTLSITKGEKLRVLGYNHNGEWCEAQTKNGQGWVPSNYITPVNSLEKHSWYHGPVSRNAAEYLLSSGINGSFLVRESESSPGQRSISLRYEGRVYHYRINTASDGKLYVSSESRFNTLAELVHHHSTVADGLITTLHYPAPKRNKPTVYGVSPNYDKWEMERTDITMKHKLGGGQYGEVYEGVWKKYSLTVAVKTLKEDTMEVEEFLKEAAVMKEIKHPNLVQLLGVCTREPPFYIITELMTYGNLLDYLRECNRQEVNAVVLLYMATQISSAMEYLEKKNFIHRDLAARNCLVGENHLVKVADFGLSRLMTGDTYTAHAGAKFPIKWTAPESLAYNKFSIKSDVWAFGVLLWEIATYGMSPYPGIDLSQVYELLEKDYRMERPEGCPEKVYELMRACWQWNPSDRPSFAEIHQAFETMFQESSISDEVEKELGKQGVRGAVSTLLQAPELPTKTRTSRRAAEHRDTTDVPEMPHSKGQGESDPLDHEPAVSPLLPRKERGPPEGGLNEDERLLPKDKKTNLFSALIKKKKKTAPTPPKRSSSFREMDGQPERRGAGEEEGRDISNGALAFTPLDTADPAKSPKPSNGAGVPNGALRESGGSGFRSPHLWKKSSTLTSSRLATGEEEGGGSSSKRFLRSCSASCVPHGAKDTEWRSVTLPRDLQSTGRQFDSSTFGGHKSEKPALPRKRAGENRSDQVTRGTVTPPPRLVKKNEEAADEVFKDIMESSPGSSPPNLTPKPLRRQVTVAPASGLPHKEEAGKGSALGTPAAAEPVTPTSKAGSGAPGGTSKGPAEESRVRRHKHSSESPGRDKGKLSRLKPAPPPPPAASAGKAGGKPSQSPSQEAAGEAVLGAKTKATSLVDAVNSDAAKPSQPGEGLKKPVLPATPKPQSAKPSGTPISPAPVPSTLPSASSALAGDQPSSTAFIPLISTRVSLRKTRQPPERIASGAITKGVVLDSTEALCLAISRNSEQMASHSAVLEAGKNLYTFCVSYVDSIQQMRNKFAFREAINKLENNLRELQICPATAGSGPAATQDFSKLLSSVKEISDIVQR
# From the text: as §1
# MAP3K15 = MAP3K15 (Homo sapiens, UniProt Q6ZN16)
# From the text: as §1
# CSF1R-autoinhibited = CSF1R-autoinhibited (Homo sapiens, UniProt P07333)
# From the text: as §1
# [3] = target: T5, RPS6KA5(Kin.Dom.1-N-terminal) (Homo sapiens, UniProt O75582)
# T5 construct: Kin.Dom.1-N-terminal
# From the text: as §1
# EIF2AK1 = EIF2AK1 (Homo sapiens, UniProt Q9BQI3)
# Chain of EIF2AK1 (Q9BQI3 whole entry): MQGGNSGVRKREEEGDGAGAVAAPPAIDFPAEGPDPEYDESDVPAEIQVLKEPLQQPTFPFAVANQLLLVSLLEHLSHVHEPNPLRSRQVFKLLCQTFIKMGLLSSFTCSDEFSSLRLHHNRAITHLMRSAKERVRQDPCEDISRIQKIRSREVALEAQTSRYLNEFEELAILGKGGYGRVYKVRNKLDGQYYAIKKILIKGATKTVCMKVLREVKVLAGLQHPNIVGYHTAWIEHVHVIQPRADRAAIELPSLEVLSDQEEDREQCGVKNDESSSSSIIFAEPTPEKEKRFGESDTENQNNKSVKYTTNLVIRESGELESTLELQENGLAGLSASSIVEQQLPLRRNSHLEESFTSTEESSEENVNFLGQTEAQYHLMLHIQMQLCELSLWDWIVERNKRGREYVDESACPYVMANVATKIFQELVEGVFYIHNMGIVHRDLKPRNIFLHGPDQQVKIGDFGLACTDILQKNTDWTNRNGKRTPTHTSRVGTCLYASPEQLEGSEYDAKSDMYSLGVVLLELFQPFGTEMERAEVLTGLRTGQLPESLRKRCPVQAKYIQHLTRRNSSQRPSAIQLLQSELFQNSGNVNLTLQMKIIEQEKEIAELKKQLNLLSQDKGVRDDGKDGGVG
# From the text: as §1
compound,measurement,setting,value
c1ccc2c(c1)Sc1ccccc1N2CCN1CCOCC1 [J54],remaining binding,ADCK3,100%
same,remaining binding,EPHA8,100%
same,remaining binding,ULK2,100%
same,remaining binding,TAOK1,100%
same,remaining binding,[1],100%
same,remaining binding,NEK5,70%
same,remaining binding,"KIT(V559D,V654A)",99%
same,remaining binding,LRRK2,100%
same,remaining binding,EPHA6,100%
same,remaining binding,PRKCI,98%
same,remaining binding,PIM1,81%
same,remaining binding,TIE2,76%
same,remaining binding,HIPK4,90%
same,remaining binding,[2],98%
same,remaining binding,MAP3K15,100%
same,remaining binding,CSF1R-autoinhibited,85%
same,remaining binding,[3],100%
same,remaining binding,EIF2AK1,90%
